The values below are quoted from earlier work in PubChem BioAssay AID1259409 (Chemical Carcinogenesis Research Information System (CCRIS), 2018).

In this series the test system is rodent chemically induced tumor inhibition, incidence and multiplicity. Nature of the series: CCRIS tumor inhibitor studies.

In the case of `CS(=O)CCCCN=C=S` (stereo unspecified), the “tumour outcome (control, treated, inhibition, significance)” value is reported as 42%, 20%, 52%, not significant (Carcinogen: 4-(METHYLNITROSAMINO)-1-(3-PYRIDYL)-1-BUTANONE (NNK) [64091-91-4], Dose [Inhibitor]: 1.5 UM/G DIET, BEGINNING 13 WKS AFTER CARCINOGEN/PROMOTER TREATMENT (STUDY DURATION: 42 WK), Route [Inhibitor]: DIET, Species: MOUSE, Strain/Sex: A/J/FEMALE (39,?)/(20,?), Target Tissue: Type of Lesion: LUNG: ADENOCARCINOMA, Dose [Carcinogen]: 3 µM WEEKLY FOR 8 DOSES, Promoter: BENZO[A]PYRENE [50-32-8]); 100%, 100%, 0%, not significant (Carcinogen: 4-(METHYLNITROSAMINO)-1-(3-PYRIDYL)-1-BUTANONE (NNK) [64091-91-4], Dose [Inhibitor]: 1.5 UM/G DIET, BEGINNING 13 WKS AFTER CARCINOGEN/PROMOTER TREATMENT (STUDY DURATION: 42 WK), Route [Inhibitor]: DIET, Species: MOUSE, Strain/Sex: A/J/FEMALE (39,?)/(20,?), Target Tissue: Type of Lesion: LUNG: ADENOMA, Dose [Carcinogen]: 3 µM WEEKLY FOR 8 DOSES, Promoter: BENZO[A]PYRENE [50-32-8]); 42%, 28%, 33%, not significant (Carcinogen: 4-(METHYLNITROSAMINO)-1-(3-PYRIDYL)-1-BUTANONE (NNK) [64091-91-4], Dose [Inhibitor]: 3 UM/G DIET, BEGINNING 13 WKS AFTER CARCINOGEN/PROMOTER TREATMENT (STUDY DURATION: 42 WK), Route [Inhibitor]: DIET, Species: MOUSE, Strain/Sex: A/J/FEMALE (39,?)(32,?), Target Tissue: Type of Lesion: LUNG: ADENOCARCINOMA, Dose [Carcinogen]: 3 µM WEEKLY FOR 8 DOSES, Promoter: BENZO[A]PYRENE [50-32-8]); 100%, 93%, 7%, not significant (Carcinogen: 4-(METHYLNITROSAMINO)-1-(3-PYRIDYL)-1-BUTANONE (NNK) [64091-91-4], Dose [Inhibitor]: 3 UM/G DIET, BEGINNING 13 WKS AFTER CARCINOGEN/PROMOTER TREATMENT (STUDY DURATION: 42 WK), Route [Inhibitor]: DIET, Species: MOUSE, Strain/Sex: A/J/FEMALE (39,?)/(32,?), Target Tissue: Type of Lesion: LUNG: ADENOMA, Dose [Carcinogen]: 3 µM WEEKLY FOR 8 DOSES, Promoter: BENZO[A]PYRENE [50-32-8]); 17/25 (68%), 7/20 (35%), 49%, p<0.05 (Carcinogen: 7,12-DIMETHYLBENZ[A]ANTHRACENE, 57-97-6, Dose [Inhibitor]: 0, 75 UMOL/D IN 0.5 ML EMULPHOR EL-620 FOR 5 CONSECUTIVE DAYS BEGINNING AT 47 D OF AGE (STUDY DURATION: 155 D), Route [Inhibitor]: GAVAGE, Species: RAT, Strain/Sex: SPRAGUE-DAWLEY/FEMALE, Target Tissue: Type of Lesion: MAMMARY GLAND: TUMOR, Dose [Carcinogen]: 8 MG IN 1 ML SESAME OIL ONCE AT 50 D OF AGE, Promoter: NONE USED); 17/25 (68%), 5/19 (26%), 62%, p<0.05 (Carcinogen: 7,12-DIMETHYLBENZ[A]ANTHRACENE, 57-97-6, Dose [Inhibitor]: 0, 150 UMOL/D IN 0.5 ML EMULPHOR EL-620 FOR 5 CONSECUTIVE DAYS BEGINNING AT 47 D OF AGE (STUDY DURATION: 155 D), Route [Inhibitor]: GAVAGE, Species: RAT, Strain/Sex: SPRAGUE-DAWLEY/FEMALE, Target Tissue: Type of Lesion: MAMMARY GLAND: TUMOR, Dose [Carcinogen]: 8 MG IN 1 ML SESAME OIL ONCE AT 50 D OF AGE, Promoter: NONE USED).
